pIC50: −log10 of the molar value. Where a SMILES comes first, the peptide text is derived from it. Bridges are numbered along the chain shown (N, C = ends). [ ]: non-standard residue; d: D form. The star is where a group is joined. hPhe(3-Cl-4-CF3) = N[C@@H](CCc1ccc(C(F)(F)F)c(Cl)c1)C(=O)O; NPrPhe(4-CF3) = CCCN[C@@H](Cc1ccc(C(F)(F)F)cc1)C(=O)O; Morpholine(3S-CO) = O=C(O)[C@@H]1COCCN1; NMeGly(cPent) = CN[C@H](C(=O)O)C1CCCC1; Pro(4,4-F2) = O=C(O)[C@@H]1CC(F)(F)CN1; NMeD = CN[C@@H](CC(=O)O)C(=O)O; NMeL = CN[C@@H](CC(C)C)C(=O)O; Morpholide = C1CN(*)CCO1; Ac5c = NC1(C(=O)O)CCCC1; Ac4c = NC1(C(=O)O)CCC1; NEtG = CCNCC(=O)O; Sar = CNCC(=O)O
Key:
[1] = test system: human lung cancer strain NCI-H441; assay type: cell-based
Summary of the method: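 Step one: dispense the test compound in serial DMSO dilutions. Step three: add the reagent and measure […].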

[2] = molecular target: HRAS wild-type protein (Homo sapiens, UniProt P01112); assay: Binding to HRAS by surface plasmon resonance (SPR), KD and KD ratio to KRAS
Chain of HRAS wild-type protein (P01112 whole entry): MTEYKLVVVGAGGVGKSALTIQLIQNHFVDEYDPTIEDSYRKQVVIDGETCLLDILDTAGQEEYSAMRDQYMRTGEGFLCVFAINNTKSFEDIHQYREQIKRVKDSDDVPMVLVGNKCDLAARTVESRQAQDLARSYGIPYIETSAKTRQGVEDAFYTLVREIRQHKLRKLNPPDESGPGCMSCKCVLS
Summary of the method: (§1)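 Running buffer contained 10 µM GDP and 10 mM MgCl2 to keep RAS in the GDP state, with 4% DMSO at pH 7.4. Compounds were flowed at 100 µL/min in 75 s steps of rising concentration over captured biotin-Avi RAS at 30°C. Sensorgrams were fitted 1:1 for KD.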

[3] = molecular target: GDP-bound NRAS wild-type protein (Homo sapiens, UniProt P01111); assay: Binding to NRAS by surface plasmon resonance (SPR), KD and KD ratio to KRAS
Chain of GDP-bound NRAS wild-type protein (P01111 whole entry): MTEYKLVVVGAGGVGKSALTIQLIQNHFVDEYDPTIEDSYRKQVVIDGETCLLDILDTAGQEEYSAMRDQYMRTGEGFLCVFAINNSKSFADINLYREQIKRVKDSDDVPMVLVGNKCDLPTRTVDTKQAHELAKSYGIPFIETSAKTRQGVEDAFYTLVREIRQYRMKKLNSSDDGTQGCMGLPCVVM
Summary of the method: as §1

[4] = ratio of KD for HRAS wild-type protein to KD for KRAS
[5] = ratio of KD for GDP-bound NRAS wild-type protein to KD for KRAS
[6] = ratio of the KD value with respect to HRAS wild-type protein to the KD value with respect to KRAS
[7] = ratio of the KD value with respect to GDP-bound NRAS wild-type protein to the KD value with respect to KRAS
[8] = ratio of KD value for HRAS wild-type protein to KD value for KRAS (SPR)
[9] = ratio of KD value for GDP-bound NRAS wild-type protein to KD value for KRAS (SPR)

Row | Compound | pIC50 [1] | HRAS /KRAS [2, 4] | NRAS /KRAS [3, 5] | HRAS /KRAS [2, 6] | NRAS /KRAS [3, 7] | HRAS /KRAS [2, 8] | NRAS /KRAS [3, 9]
1 | CCCN1C(=O)CN(C)C(=O)CNC(=O)[C@H]([C@@H](C)CC)NC(=O)[C@H](CC(C)C)N(C)C(=O)C[C@@H](C(=O)N2CCOCC2)N(C)C(=O)[C@H](C2CCCC2)N(C)C(=O)C2(CCCC2)NC(=O)[C@@H]2CCCN2C(=O)[C@H](CCc2ccc(C(F)(F)F)c(Cl)c2)NC(=O)CN(C)C(=O)[C@@H]1Cc1ccc(C(F)(F)F)cc1 [PP0155] ([NMeL]IG[Sar][NPrPhe(4-CF3)][Sar][hPhe(3-Cl-4-CF3)]P[Ac5c][NMeGly(cPent)][NMeD]-Morpholide; lactam N-11) | 8.55 | C (A compound having a KD ratio of 0.1 or more and less than 3 is denoted as C) | B (a compound having 3 or more and less than 10 is denoted as B) |  |  |  | 
2 | CCC[C@H]1C(=O)N[C@@H]([C@@H](C)CC)C(=O)N2CCC[C@H]2C(=O)N(C)[C@H]2C/C=C\CCN(C2=O)[C@@H](Cc2ccc(C(F)(F)F)cc2)C(=O)N(C)CC(=O)N[C@@H](CCc2cc(F)c(C(F)(F)F)c(F)c2)C(=O)N2C[C@H](OCC)C[C@H]2C(=O)N(C)C2(CCC2)C(=O)N(C)[C@@H](C2CCCC2)C(=O)N(C)[C@H](C(=O)N2CCCC2)CC(=O)N1C [PP3116] | 8.11 | A (a compound having 10 or more and less than 20 is denoted as A) | A (a compound having 10 or more and less than 20 is denoted as A) |  |  |  | 
3 | CCCN1C(=O)CN(C)C(=O)CN(CC)C(=O)[C@H]([C@@H](C)CC)NC(=O)[C@H](CC(C)C)N(C)C(=O)C[C@@H](C(=O)N(C)C)N(C)C(=O)[C@H](C2CCCC2)N(C)C(=O)C2(CCCC2)NC(=O)[C@@H]2CC(F)(F)CN2C(=O)[C@H](CCc2ccc(C(F)(F)F)c(Cl)c2)NC(=O)CN(C)C(=O)[C@@H]1Cc1ccc(C(F)(F)F)cc1 [PP0425] ([NMeL]I[NEtG][Sar][NPrPhe(4-CF3)][Sar][hPhe(3-Cl-4-CF3)][Pro(4,4-F2)][Ac5c][NMeGly(cPent)][NMeD]-NMe2; lactam N-11) | 8.19 |  |  | C (A compound having a KD ratio of 0.1 or more and less than 3 is denoted as C) | B (a compound having 3 or more and less than 10 is denoted as B) |  | 
4 | CCO[C@@H]1C[C@H]2C(=O)NC3(CC=CC3)C(=O)N(C)[C@@H](C3CCCC3)C(=O)N(C)[C@H](C(=O)N3CCOCC3)CC(=O)N(C)[C@@H](COC)C(=O)N[C@@H]([C@@H](C)CC)C(=O)N(C)CC(=O)N(C)[C@H]3CCCCCN(C3=O)[C@@H](Cc3ccc(C(F)(F)F)cc3)C(=O)N(C)CC(=O)N[C@@H](CCc3cc(F)c(C(F)(F)F)c(F)c3)C(=O)N2C1 [PP0842] | 6.76 | B (a compound having 3 or more and less than 10 is denoted as B) | B (a compound having 3 or more and less than 10 is denoted as B) |  |  |  | 
5 | CCCN1C(=O)CN(C)C(=O)CN(CC)C(=O)[C@H]([C@@H](C)CC)NC(=O)[C@H](CC(C)C)N(C)C(=O)C[C@@H](C(=O)N2CCOCC2)N(C)C(=O)[C@H](C2CCCC2)N(C)C(=O)C2(CCCC2)NC(=O)[C@@H]2COCCN2C(=O)[C@H](CCc2ccc(C(F)(F)F)c(Cl)c2)NC(=O)CN(C)C(=O)[C@@H]1Cc1ccc(C(F)(F)F)cc1 [PP0299] ([NMeL]I[NEtG][Sar][NPrPhe(4-CF3)][Sar][hPhe(3-Cl-4-CF3)][Morpholine(3S-CO)][Ac5c][NMeGly(cPent)][NMeD]-Morpholide; lactam N-11) | 7.69 | B (a compound having 3 or more and less than 10 is denoted as B) | B (a compound having 3 or more and less than 10 is denoted as B) |  |  |  | 
6 | CCCOC[C@H]1C(=O)N[C@@H]([C@@H](C)CC)C(=O)N(C)CC(=O)N(C)[C@H]2C/C=C\CCN(C2=O)[C@@H](Cc2ccc(C(F)(F)F)cc2)C(=O)N(C)CC(=O)N[C@@H](CCc2cc(F)c(C(F)(F)F)c(F)c2)C(=O)N2C[C@@H](C)C[C@H]2C(=O)NC2(CC(C)(C)C2)C(=O)N(C)[C@@H](C2CCCC2)C(=O)N(C)[C@H](C(=O)N(C)CC)CC(=O)N1C [PP2043] | 7.55 |  |  | A (a compound having 10 or more and less than 20 is denoted as A) | A (a compound having 10 or more and less than 20 is denoted as A) |  | 
7 | CCO[C@@H]1C[C@H]2C(=O)NC3(CCC3)C(=O)N(C)[C@@H](C3CCCC3)C(=O)N(C)[C@H](C(=O)N3CCOCC3)CC(=O)N(C)[C@@H](CC3CCCCC3)C(=O)N[C@@H]([C@@H](C)CC)C(=O)N(C)CC(=O)N(C)[C@H]3CCCCN(C3=O)[C@@H](Cc3ccc(C(F)(F)F)cc3)C(=O)N(C)CC(=O)N[C@@H](CCc3cc(F)c(C(F)(F)F)c(F)c3)C(=O)N2C1 [PP0716] | 8.20 |  |  | B (a compound having 3 or more and less than 10 is denoted as B) | C (A compound having a KD ratio of 0.1 or more and less than 3 is denoted as C) |  | 
8 | CCO[C@@H]1C[C@H]2C(=O)NC3(CCC3)C(=O)N(C)[C@@H](C3CCCC3)C(=O)N(C)[C@H](C(=O)N(C)C)CC(=O)N(C)[C@@H](CCC(F)F)C(=O)N[C@@H]([C@@H](C)CC)C(=O)N(C)CC(=O)N(C)[C@H]3C/C=C\CCN(C3=O)[C@@H](Cc3ccc(C(F)(F)F)cc3)C(=O)N(C)CC(=O)N[C@@H](CCc3cc(F)c(C(F)(F)F)c(F)c3)C(=O)N2C1 [PP1121] | 7.76 | A (a compound having 10 or more and less than 20 is denoted as A) | A (a compound having 10 or more and less than 20 is denoted as A) |  |  |  | 
9 | CCCN1C(=O)CN(C)C(=O)CN(C)C(=O)[C@H]([C@@H](C)CC)NC(=O)[C@H](CC(C)C)N(C)C(=O)C[C@@H](C(=O)N2CCOCC2)N(C)C(=O)[C@H](C2CCCC2)N(C)C(=O)C2(CCC2)NC(=O)[C@@H]2CC(F)(F)CN2C(=O)[C@H](CCc2ccc(C(F)(F)F)c(Cl)c2)NC(=O)CN(C)C(=O)[C@@H]1Cc1ccc(C(F)(F)F)cc1 [PP0207] ([NMeL]I[Sar][Sar][NPrPhe(4-CF3)][Sar][hPhe(3-Cl-4-CF3)][Pro(4,4-F2)][Ac4c][NMeGly(cPent)][NMeD]-Morpholide; lactam N-11) | 8.72 | C (A compound having a KD ratio of 0.1 or more and less than 3 is denoted as C) | B (a compound having 3 or more and less than 10 is denoted as B) |  |  |  | 
10 | CCC[C@H]1C(=O)N[C@@H]([C@@H](C)CC)C(=O)N(C)CC(=O)N(C)[C@H]2C/C=C\CCN(C2=O)[C@@H](Cc2ccc(C)cc2)C(=O)N(C)CC(=O)N[C@@H](CCc2ccc3sc(F)c(C)c3c2)C(=O)N2C[C@H](OCC)C[C@H]2C(=O)NC2(CC(C)(C)C2)C(=O)N(C)[C@@H](C2CCCC2)C(=O)N(C)[C@H](C(=O)N(C)C)CC(=O)N1C [PP2949] | 8.46 | A (a compound having 10 or more and less than 20 is denoted as A) | A (a compound having 10 or more and less than 20 is denoted as A) |  |  |  | 
11 | CCO[C@@H]1C[C@H]2C(=O)NC3(CC(C)(C)C3)C(=O)N(C)[C@@H](C(CC)CC)C(=O)N(C)C(CC)CC(=O)N(C)[C@@H](CC)C(=O)N[C@@H]([C@@H](C)CC)C(=O)N(C)CC(=O)N(C)[C@H]3C/C=C\CCN(C3=O)[C@@H](Cc3ccc(C(F)(F)F)cc3)C(=O)N(C)CC(=O)N[C@@H](CCc3cc(F)c(C(F)(F)F)c(F)c3)C(=O)N2C1 (stereo partly drawn) [PP1622] | 7.55 |  |  |  |  | A (a compound having 10 or more and less than 20 is denoted as A) | A (a compound having 10 or more and less than 20 is denoted as A)
12 | CC[C@H](C)[C@@H]1NC(=O)[C@H](CC2CC2)N(C)C(=O)C[C@@H](C(=O)N(C)C)N(C)C(=O)[C@H](C2CCCC2)N(C)C(=O)C2(CC(C)(C)C2)NC(=O)[C@@H]2CC(F)(F)CN2C(=O)[C@H](CCc2cc(F)c(C(F)(F)F)c(F)c2)NC(=O)CN(C)C(=O)[C@H](Cc2ccc(C(F)(F)F)cc2)N2CC/C=C\C[C@@H](C2=O)N(C)C(=O)CN(C)C1=O [PP1713] | 8.10 |  |  |  |  | A (a compound having 10 or more and less than 20 is denoted as A) | A (a compound having 10 or more and less than 20 is denoted as A)
13 | CCC[C@H]1C(=O)N[C@@H]([C@@H](C)CC)C(=O)N2CCC[C@H]2C(=O)N(C)[C@H]2C/C=C\CCN(C2=O)[C@@H](Cc2ccc(C(F)(F)F)cc2)C(=O)N(C)CC(=O)N[C@@H](CCc2ccc(C(F)(F)F)c(OC)c2)C(=O)N2C[C@H](OCC)C[C@H]2C(=O)N(C)C2(CCC2)C(=O)N(C)[C@@H](C(CC)CC)C(=O)N(C)[C@H](C(=O)N(C)C)CC(=O)N1C [PP2317] | 7.90 |  |  | A (a compound having 10 or more and less than 20 is denoted as A) | A (a compound having 10 or more and less than 20 is denoted as A) |  | 
14 | CCC[C@H]1C(=O)N[C@@H]([C@@H](C)CC)C(=O)N(C)CC(=O)N(C)[C@H]2C/C=C\CCN(C2=O)[C@@H](Cc2ccc(C(F)(F)F)cc2)C(=O)N(C)CC(=O)N[C@@H](CCc2ccc(Cl)c(OC)c2)C(=O)N2C[C@H](OCC)C[C@H]2C(=O)NC2(CC(C)(C)C2)C(=O)N(C)[C@@H](C(CC)CC)C(=O)N(C)[C@H](C(=O)N(C)C)CC(=O)N1C [PP2789] | 7.33 | A (a compound having 10 or more and less than 20 is denoted as A) | AA (a compound having 20 or more is denoted as AA) |  |  |  | 
15 | CCO[C@@H]1C[C@H]2C(=O)NC3(CCC3)C(=O)N(C)[C@@H](C3CCCC3)C(=O)N(C)[C@H](C(=O)N3CCOCC3)CC(=O)N(C)[C@@H](Cc3ccccc3Cl)C(=O)N[C@@H]([C@@H](C)CC)C(=O)N(C)CC(=O)N(C)[C@H]3CCCCCN(C3=O)[C@@H](Cc3ccc(C(F)(F)F)cc3)C(=O)N(C)CC(=O)N[C@@H](CCc3cc(F)c(C(F)(F)F)c(F)c3)C(=O)N2C1 [PP0929] | 6.50 | B (a compound having 3 or more and less than 10 is denoted as B) | A (a compound having 10 or more and less than 20 is denoted as A) |  |  |  | 
